Assays:
[1] = system: murine embryonic stem cells; experiment: LDH release cytotoxicity test in stem cells; conditions: 3 mg ELIP/30 μl gas/ml for 4 hours; H2O2 10 mM for 2 hours
Procedure: Cells were treated with Xe-reagents (3 mg ELIP/30 μl gas/ml) and control medium for 4 hours, and 2 hours before the end of cultures; 10 mM H2O2 was added.
The cell viability was determined by assessing the release of LDH.

[2] = target: tPA activity on porcine blood clot (Homo sapiens, UniProt P00750); experiment: Thrombolytic efficiency of tPA on porcine blood clot in presence of Xe-ELIP or free Xe; conditions: 30 minute incorporation with tPA
Procedure: Neuroprotective combination therapy may minimize the harmful effects of ischemic neuronal damage. […] The thrombolytic effect of tPA was inhibited after 30 minute incorporation with free Xe (Xe saturated solution).

Sequence of tPA activity on porcine blood clot (P00750 36-562): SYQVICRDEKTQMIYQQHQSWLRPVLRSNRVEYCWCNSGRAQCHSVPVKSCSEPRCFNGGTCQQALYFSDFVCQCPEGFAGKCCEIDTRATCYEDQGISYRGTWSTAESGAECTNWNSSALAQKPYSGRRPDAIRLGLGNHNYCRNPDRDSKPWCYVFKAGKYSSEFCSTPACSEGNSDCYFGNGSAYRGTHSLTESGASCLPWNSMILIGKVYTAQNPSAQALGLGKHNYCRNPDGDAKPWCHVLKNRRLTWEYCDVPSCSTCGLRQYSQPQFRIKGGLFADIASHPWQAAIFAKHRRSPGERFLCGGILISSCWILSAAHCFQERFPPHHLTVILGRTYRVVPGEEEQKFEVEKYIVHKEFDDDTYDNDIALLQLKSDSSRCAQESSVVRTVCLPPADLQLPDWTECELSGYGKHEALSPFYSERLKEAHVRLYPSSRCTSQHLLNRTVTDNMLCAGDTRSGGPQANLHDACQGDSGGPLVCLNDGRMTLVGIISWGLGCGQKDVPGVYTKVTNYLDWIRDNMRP

Compound	LDH release (cytotoxicity) [1]	thrombolytic effect of tPA [2]
OO [H2O2, Hydrogen Peroxide]	significant LDH release	
[Xe] [free Xe]		inhibited
